Measurements taken from PubChem BioAssay AID330 (DTP/NCI, 2004).
Inconclusive results and toxic doses are left out.

Tested on: P388 leukemia ip, CD2F1 mice, survival T/C
Assay: NCI In Vivo Anticancer Drug Screen. Data for tumor model P388 Leukemia (intraperitoneal) in CD2F1 (CDF1) mice
Conditions: endpoint: median survival time, higher = longer survival
In short: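 Mice carrying the transplanted tumor received test compound or vehicle. Survival was recorded in each group, and the value is the treated-group measurement divided by that of the vehicle-treated control group.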

[1] = dose: 6.25 mg/kg/injection, schedule: Q01DX009 (ip), vehicle: saline
[2] = dose: 12.5 mg/kg/injection, schedule: Q01DX009 (ip), vehicle: saline
[3] = dose: 25.0 mg/kg/injection, schedule: Q01DX009 (ip), vehicle: saline
[4] = dose: 50.0 mg/kg/injection, schedule: Q01DX005 (ip), vehicle: saline with Tween-80
[5] = dose: 100.0 mg/kg/injection, schedule: Q01DX005 (ip), vehicle: saline with Tween-80
[6] = dose: 200.0 mg/kg/injection, schedule: Q01DX005 (ip), vehicle: saline with Tween-80
[7] = dose: 50.0 mg/kg/injection, schedule: Q01DX009 (ip), vehicle: saline
[8] = dose: 6.25 mg/kg/injection, schedule: Q01DX005 (ip), vehicle: saline with Tween-80
[9] = dose: 12.5 mg/kg/injection, schedule: Q01DX005 (ip), vehicle: saline with Tween-80

In the case of `CCC1(O)CC2CN(CCc3c([nH]c4ccccc34)C(C(=O)OC)(c3cc4c(cc3OC)N(C)C3C(O)(C(=O)NCCO)C(O)C5(CC)C=CCN6CCC43C65)C2)C1` (stereo unspecified), the T/C (dose: 0.13 mg/kg/injection, schedule: Q01DX009 (ip), vehicle: water) is reported as 105 % of control, the T/C (dose: 0.2 mg/kg/injection, schedule: Q01DX009 (ip), vehicle: saline) is reported as 150 % of control and the T/C (dose: 0.22 mg/kg/injection, schedule: Q01DX009 (ip), vehicle: water) is reported as 117 % of control. For the same molecule, the T/C (dose: 0.36 mg/kg/injection, schedule: Q01DX009 (ip), vehicle: water) was 122 % of control, the T/C (dose: 0.4 mg/kg/injection, schedule: Q01DX009 (ip), vehicle: saline) was 167 % of control and the T/C (dose: 0.6 mg/kg/injection, schedule: Q01DX009 (ip), vehicle: water) was 153 % of control. For the same molecule, the T/C (dose: 0.63 mg/kg/injection, schedule: Q04DX003 (ip), vehicle: saline) was 183 % of control, the T/C (dose: 0.8 mg/kg/injection, schedule: Q01DX009 (ip), vehicle: saline) was 96 % of control and the T/C (dose: 1.0 mg/kg/injection, schedule: Q01DX009 (ip), vehicle: water) was 104 % of control. For the same molecule, the T/C (dose: 1.25 mg/kg/injection, schedule: Q04DX003 (ip), vehicle: saline) was 223 % of control and the T/C (dose: 2.5 mg/kg/injection, schedule: Q04DX003 (ip), vehicle: saline) was 274 % of control.
`Brc1ccc2c(ccc3nc4nnnn4nc32)c1` was tested, and the T/C (dose: 60.0 mg/kg/injection, schedule: Q01DX005 (ip), vehicle: Klucel (hydroxypropylcellulose) (HPC)) was 94 % of control, the T/C (dose: 120.0 mg/kg/injection, schedule: Q01DX005 (ip), vehicle: Klucel (hydroxypropylcellulose) (HPC)) was 90 % of control and the T/C (dose: 240.0 mg/kg/injection, schedule: Q01DX005 (ip), vehicle: Klucel (hydroxypropylcellulose) (HPC)) was 86 % of control.
For `Fc1ccc(NC(=S)S)cc1`, the T/C (dose: 6.25 mg/kg/injection, schedule: Q01DX009 (ip), vehicle: saline with Tween-80) was 104 % of control, the T/C (dose: 6.25 mg/kg/injection, schedule: Q04DX003 (ip), vehicle: saline) was 100 % of control and the T/C (dose: 12.5 mg/kg/injection, schedule: Q01DX009 (ip), vehicle: saline with Tween-80) was 104 % of control. For the same molecule, the T/C (dose: 12.5 mg/kg/injection, schedule: Q04DX003 (ip), vehicle: saline) was 115 % of control, the T/C (dose: 25.0 mg/kg/injection, schedule: Q01DX009 (ip), vehicle: saline with Tween-80) was 104 % of control and the T/C (dose: 25.0 mg/kg/injection, schedule: Q04DX003 (ip), vehicle: saline) was 100 % of control.
In the case of `[N-]=[N+]=CC(=O)NCC(=O)NNC(=O)c1ccccc1`, the T/C (dose: 3.12 mg/kg/injection, schedule: Q01DX009 (ip), vehicle: saline) is reported as 92 % of control, the T/C [1] is reported as 87 % of control and the T/C [2] is reported as 100 % of control. The T/C [3] was 87 % of control.
In the case of `OCCOCCSc1ccccn1`, the T/C (dose: 50.0 mg/kg/injection, schedule: Q01DX005 (ip), vehicle: saline) is reported as 109 % of control, the T/C (dose: 100.0 mg/kg/injection, schedule: Q01DX005 (ip), vehicle: saline) is reported as 111 % of control and the T/C (dose: 200.0 mg/kg/injection, schedule: Q01DX005 (ip), vehicle: saline) is reported as 111 % of control.
`CC1OC(C)(C)OC1C(=O)OCc1ccccc1` (stereo unspecified) was tested, and the T/C (dose: 25.0 mg/kg/injection, schedule: Q01DX005 (ip), vehicle: water) was 96 % of control, the T/C (dose: 50.0 mg/kg/injection, schedule: Q01DX005 (ip), vehicle: water) was 105 % of control and the T/C (dose: 100.0 mg/kg/injection, schedule: Q01DX005 (ip), vehicle: water) was 100 % of control. The T/C (dose: 200.0 mg/kg/injection, schedule: Q01DX005 (ip), vehicle: water) was 100 % of control and the T/C (dose: 400.0 mg/kg/injection, schedule: Q01DX005 (ip), vehicle: water) was 100 % of control.
`CN(c1ccccc1)N1C(=O)CC2(CCCC2)C1=O` was tested, and the T/C (dose: 100.0 mg/kg/injection, schedule: Q04DX002 (ip), vehicle: Klucel (hydroxypropylcellulose) (HPC)) was 103 % of control, the T/C (dose: 200.0 mg/kg/injection, schedule: Q04DX002 (ip), vehicle: Klucel (hydroxypropylcellulose) (HPC)) was 106 % of control and the T/C (dose: 400.0 mg/kg/injection, schedule: Q04DX002 (ip), vehicle: Klucel (hydroxypropylcellulose) (HPC)) was 94 % of control.
For `O=C1c2cccc3cccc(c23)C(=O)N1CC1CCCO1` (stereo unspecified), the T/C [4] was 99 % of control, the T/C [5] was 101 % of control and the T/C [6] was 94 % of control.
`COc1ccc(C(=O)C(C)(c2nc3n(c2O)C(=N)N=N3)c2nc3n(c2O)C(=N)N=N3)cc1` (stereo unspecified) was tested, and the T/C (dose: 60.0 mg/kg/injection, schedule: Q01DX005 (ip), vehicle: saline) was 100 % of control, the T/C (dose: 120.0 mg/kg/injection, schedule: Q01DX005 (ip), vehicle: saline) was 102 % of control and the T/C (dose: 240.0 mg/kg/injection, schedule: Q01DX005 (ip), vehicle: saline) was 106 % of control.
For `O=C(O)CS(=O)(=O)CCCCS(=O)(=O)CC(=O)O`, the T/C [7] was 104 % of control, the T/C (dose: 100.0 mg/kg/injection, schedule: Q01DX009 (ip), vehicle: saline) was 103 % of control and the T/C (dose: 200.0 mg/kg/injection, schedule: Q01DX009 (ip), vehicle: saline) was 100 % of control.
`C=C(C)C(=O)OC1CC2OC2(C)CC(OC(=O)C(=C)C)C2C(=C)C(=O)OC2/C=C\1C` (stereo unspecified) was tested, and the T/C (dose: 5.0 mg/kg/injection, schedule: Q01DX009 (ip), vehicle: saline with Tween-80) was 90 % of control, the T/C (dose: 10.0 mg/kg/injection, schedule: Q01DX009 (ip), vehicle: saline with Tween-80) was 90 % of control and the T/C (dose: 20.0 mg/kg/injection, schedule: Q01DX009 (ip), vehicle: saline with Tween-80) was 100 % of control. The T/C (dose: 40.0 mg/kg/injection, schedule: Q01DX009 (ip), vehicle: saline with Tween-80) was 86 % of control.
`CCC1CN2CCC3(C(=O)Nc4ccccc43)C2CC1/C(=C/OC)C(=O)OC` (stereo unspecified) was tested, and the T/C [1] was 102 % of control, the T/C [2] was 100 % of control and the T/C [3] was 102 % of control. The T/C (dose: 50.0 mg/kg/injection, schedule: Q01DX009 (ip), vehicle: saline with Tween-80) was 100 % of control and the T/C [7] was 103 % of control.
For `CCSc1ccc(N2C(N)=NC(N)=NC2(C)C)cc1`, the T/C [8] was 103 % of control, the T/C [9] was 103 % of control and the T/C (dose: 25.0 mg/kg/injection, schedule: Q01DX005 (ip), vehicle: saline with Tween-80) was 118 % of control.
`c1ccc2[s+]csc2c1` was tested, and the T/C (dose: 6.25 mg/kg/injection, schedule: Q01DX009 (ip), vehicle: distilled water + Tween-80) was 102 % of control, the T/C (dose: 12.5 mg/kg/injection, schedule: Q01DX009 (ip), vehicle: distilled water + Tween-80) was 92 % of control and the T/C (dose: 25.0 mg/kg/injection, schedule: Q01DX009 (ip), vehicle: distilled water + Tween-80) was 107 % of control. The T/C (dose: 50.0 mg/kg/injection, schedule: Q01DX009 (ip), vehicle: distilled water + Tween-80) was 108 % of control and the T/C (dose: 100.0 mg/kg/injection, schedule: Q01DX009 (ip), vehicle: distilled water + Tween-80) was 93 % of control.
In the case of `O=C(O)c1ccc([N+](=O)[O-])o1`, the T/C (dose: 25.0 mg/kg/injection, schedule: Q01DX009 (ip), vehicle: Klucel (hydroxypropylcellulose) (HPC)) is reported as 99 % of control, the T/C (dose: 50.0 mg/kg/injection, schedule: Q01DX009 (ip), vehicle: Klucel (hydroxypropylcellulose) (HPC)) is reported as 89 % of control and the T/C (dose: 100.0 mg/kg/injection, schedule: Q01DX009 (ip), vehicle: Klucel (hydroxypropylcellulose) (HPC)) is reported as 96 % of control.
In the case of `C#CC(C)(C)NC(=O)c1cccnc1Oc1ccccc1`, the T/C [4] is reported as 99 % of control, the T/C [5] is reported as 97 % of control and the T/C [6] is reported as 99 % of control.
`CN1N=Nc2ccccc2C1(O)c1ccccc1` (stereo unspecified) was tested, and the T/C (dose: 100.0 mg/kg/injection, schedule: Q01DX001 (ip), vehicle: Klucel (hydroxypropylcellulose) (HPC)) was 98 % of control, the T/C (dose: 200.0 mg/kg/injection, schedule: Q01DX001 (ip), vehicle: Klucel (hydroxypropylcellulose) (HPC)) was 98 % of control and the T/C (dose: 400.0 mg/kg/injection, schedule: Q01DX001 (ip), vehicle: Klucel (hydroxypropylcellulose) (HPC)) was 102 % of control.
For `CCC[CH2][Sn]([CH2]CCC)([O]c1ccccc1C=Nc1ccc(F)cc1)[O]c1ccccc1C=Nc1ccc(F)cc1`, the T/C [8] was 116 % of control and the T/C [9] was 122 % of control.
For `O=C1NC(=O)c2ncccc21`, the T/C (dose: 100.0 mg/kg/injection, schedule: Q04DX003 (ip), vehicle: saline with Tween-80) was 100 % of control, the T/C (dose: 200.0 mg/kg/injection, schedule: Q04DX003 (ip), vehicle: saline with Tween-80) was 100 % of control and the T/C (dose: 400.0 mg/kg/injection, schedule: Q04DX003 (ip), vehicle: saline with Tween-80) was 100 % of control.
For `O=C1NC(=O)C2(Br)Nc3ccc(Br)cc3C(=O)C2N1` (stereo unspecified), the T/C (dose: 50.0 mg/kg/injection, schedule: Q01DX005 (ip), vehicle: Klucel (hydroxypropylcellulose) (HPC)) was 100 % of control, the T/C (dose: 100.0 mg/kg/injection, schedule: Q01DX005 (ip), vehicle: Klucel (hydroxypropylcellulose) (HPC)) was 98 % of control and the T/C (dose: 200.0 mg/kg/injection, schedule: Q01DX005 (ip), vehicle: Klucel (hydroxypropylcellulose) (HPC)) was 90 % of control.
For `CCN(CC)CCOC(=O)C(C1CCCCC1)C1(O)CCCCCC1` (stereo unspecified), the T/C [4] was 104 % of control, the T/C [5] was 102 % of control and the T/C [6] was 95 % of control.
